Assay results reported in US4236010A, “Phenyl-quinolizidines” (Hoffmann-La Roche Inc., priority 1978, dated 1980).
Counter-ions that a name gives are not always drawn.

Columns and labels:
[1] = "Pole Climbing" test (rat); type: in vivo; conditions: ip, 6 h; for ED50: Rattus norvegicus, read-out: Pole-Climbing BCR (Block of Conditioned Reflex) ED50 i.p.; for ED10: rat, i.p., inhibition of the unconditioned reaction, ED 10, read-out: Pole-Climbing BUR (Block of Unconditioned Reflex) ED10 i.p.
Excerpt: "Pole Climbing" test (rat)
In this test, there was used, for each dosage, a group of 10 rats which had been trained to escape an electric shock, unconditioned stimulus, produced via the lattice floor immediately after an acoustic signal, conditioned stimulus, by jumping up a vertical isolated pole in the experimental cage.

[2] = target: T1, calf striatum (specific binding of [^3 H] spiroperidol on the receptor) (Bos taurus, UniProt P20288); test: Spiroperidol-binding test (in vitro); conditions: 50% detachment of specific [^3 H] spiroperidol binding
T1 construct: calf striatum was used as the receptor; from tissue; host or cells: calf striatum
T1 sequence (P20288 whole entry): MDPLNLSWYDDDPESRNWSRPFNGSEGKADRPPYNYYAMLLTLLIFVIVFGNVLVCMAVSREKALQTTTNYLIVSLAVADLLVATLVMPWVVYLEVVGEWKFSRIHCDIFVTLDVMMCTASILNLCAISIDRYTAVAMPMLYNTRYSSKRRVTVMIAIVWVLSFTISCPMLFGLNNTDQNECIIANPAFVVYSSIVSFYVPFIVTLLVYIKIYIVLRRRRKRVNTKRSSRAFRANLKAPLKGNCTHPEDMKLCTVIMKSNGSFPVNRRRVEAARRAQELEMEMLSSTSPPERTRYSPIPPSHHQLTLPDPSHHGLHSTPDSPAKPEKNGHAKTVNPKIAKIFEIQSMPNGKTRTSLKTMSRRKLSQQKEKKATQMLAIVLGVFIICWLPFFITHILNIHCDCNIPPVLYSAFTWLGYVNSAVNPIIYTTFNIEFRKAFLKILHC
Experimental: Spiroperidol-binding test (in vitro)
In this in vitro test calf striatum was used as the receptor [Creese et al., Life Sci. 17, 993 (1975)] and incubated with [^3 H] spiroperidol in analogy to the method described by Fields et al., Brain Research 136, 578 (1977).

Hot-plate test (mouse) = type: in vivo; conditions: po, 1 h, mice, p.o., 60 minutes after administration, plate 60°±0.5° C
Experimental: Eight mice (20-22 g) were used per dosage. Sixty minutes after oral administration of the test substance, the mice were placed on a heated metal plate of 60°±0.5° C. Untreated mice begin to lick their paws within a maximum of 10 seconds.

Writhing test (mouse) = type: in vivo; conditions: po, 1 h, male mice, p.o., 60 minutes after administration
Experimental: Eight male mice (20-22 g.) per dosage, were used for this test. Sixty minutes after oral administration of the test substance, the mice were injected intraperitoneally with 10 ml/kg of the test solution. Following a latent period of 5 minutes, the number of animals in which no more than one characteristic writhing symptom (convulsive stretching movement of the body) occurred over five minutes was registered.

Compound: CC(C)(C)[C@]1(O)CCN2C[C@@H](c3ccc(Cl)cc3Cl)CC[C@@H]2C1 (relative stereo) [rac-(9aβ H)-2α-tert.-Butyl-7β-(2,4-dichlorophenyl) octahydro-2H-quinolizin-2-ol HCl]
- ED50 [1]: 6.4 mg/kg
- ED10 [1]: 5.4 mg/kg
- IC50 [2]: 79 nM

Compound: CCCC[C@]1(OC(C)=O)CCN2C[C@@H](c3ccccc3)CC[C@@H]2C1 (relative stereo) [rac-(9aβH)-2α-n-Butyl-7β-phenyl-octahydro-2H-quinozilin-2-yl acetate HCl]
- ED50 (Hot-plate test (mouse)): 25 mg/kg
- ED50 (Writhing test (mouse)): 0.75 mg/kg

Compound: CCC(=O)O[C@@]1(c2ccccc2)CCN2C[C@@H](c3cccc(OC)c3)CC[C@@H]2C1 (relative stereo) [rac-(9aβH)-2α-Phenyl-7β-(m-methoxyphenyl)-octahydro-2H-quinolizin-2-yl propionate HCl]
- ED50 (Hot-plate test (mouse)): 12 mg/kg
- ED50 (Writhing test (mouse)): 2.8 mg/kg

Compound: CC(C)(C)[C@]1(OC(=O)C(F)(F)F)CCN2C[C@@H](c3ccccc3)CC[C@@H]2C1 (relative stereo) [rac-(9aβH)-2α-tert.Butyl-7β-phenyl-octahydro-2H-quinolizin-2-yl trifluoroacetate HCl]
- ED50 (Hot-plate test (mouse)): 86 mg/kg
- ED50 (Writhing test (mouse)): 8.7 mg/kg

Compound: O=c1[nH]c2cc(C(F)(F)F)ccc2n1[C@@H]1CCN2C[C@@H](c3ccccc3Cl)CC[C@@H]2C1 (relative stereo) [rac-1-[(9aβH)-7β-(o-Chlorophenyl)octahydro-2H-quinolizin-2α-yl]-5-trifluoromethyl-2-benzimidazolinone HCl]
- ED50 [1]: 0.21 mg/kg
- ED10 [1]: 0.41 mg/kg
- IC50 [2]: 10 nM

Compound: CC(C)(C)[C@]1(O)CCN2C[C@@H](c3ccc(Cl)cc3Cl)CC[C@@H]2C1 [(-)-(2S,7R,9aR)-2-tert.-Butyl-7-(2,4-dichlorophenyl) octahydro-2H-quinolizin-2-ol HCl]
- ED50 [1]: 4.7 mg/kg
- ED10 [1]: 3.8 mg/kg
- IC50 [2]: 41 nM

Compound: CC(=O)O[C@]1(c2ccccc2)CCN2C[C@@H](c3ccccc3Cl)CC[C@@H]2C1 (relative stereo) [rac-(9aβH)-2β-Phenyl-7β-(o-chlorophenyl)-octahydro-2H-quinolizin-2-yl acetate HCl]
- ED50 (Hot-plate test (mouse)): 284 mg/kg
- ED50 (Writhing test (mouse)): 116 mg/kg

Compound: O=c1[nH]c2cc(Cl)ccc2n1[C@@H]1CCN2C[C@@H](c3ccccc3F)CC[C@@H]2C1 (relative stereo) [rac-1-[(9aβH)-7β-(o-Fluorophenyl)octahyro-2H-quinolizin-2α-yl]-5-chloro-2-benzimidazolinone HCl]
- ED50 [1]: 0.064 mg/kg
- ED10 [1]: 0.175 mg/kg

Compound: CCCCC1(OC(C)=O)CCN2CC(c3ccccc3)CCC2C1.Cl (single isomer, unassigned; (+)) [(+)-2-Butyloctahydro-7-phenyl-2H-quinolizin-2-yl acetate HCl]
- ED50 (Hot-plate test (mouse)): 2.6 mg/kg
- ED50 (Writhing test (mouse)): 0.19 mg/kg

Compound: Cc1cc2[nH]c(=O)n([C@@H]3CCN4C[C@@H](c5ccccc5Cl)CC[C@@H]4C3)c2cc1C (relative stereo) [rac-1-[(9aβH)-7β-(o-Chlorophenyl)octahydro-2H-quinolizin-2α-yl]-5,6-dimethyl-2-benzimidazolinone HCl]
- ED50 [1]: 1.75 mg/kg
- ED10 [1]: 4.55 mg/kg
- IC50 [2]: 5 nM
